Laboratory results from ChEMBL document CHEMBL5113416, “Glycosylation increases the anti-QS as well as anti-biofilm and anti-adhesion ability of the cyclo (L-Trp-L-Ser) against Pseudomonas aeruginosa” (Eur J Med Chem, 2022).
Active and inactive are the calls of the source. The rule behind the calls is not given here.

Legend:
Pseudomonas aeruginosa [1] = test: Bactericidal activity against Pseudomonas aeruginosa PAO1 assessed as reduction in bacterial density at 150 ug/ml incubated for 6 hrs by colony-counting method; format: functional; design: scale not given: the % may be the effect or the level left; conditions: dose 150 µg/ml
Pseudomonas aeruginosa [2] = test: Bactericidal activity against Pseudomonas aeruginosa PAO1 assessed as reduction in bacterial density at 150 ug/ml incubated for 1 hrs by colony-counting method; format: functional; design: scale not given: the % may be the effect or the level left; conditions: dose 150 µg/ml
Pseudomonas aeruginosa [3] = test: Anti-adhesion activity against Pseudomonas aeruginosa PAO1 assessed as inhibition of adhesion ability at 50 ug/ml incubated for 3 hrs using glass as substrate by colony-counting method; format: functional
Pseudomonas aeruginosa [4] = test: Anti-adhesion activity against Pseudomonas aeruginosa PAO1 assessed as inhibition of adhesion ability at 50 ug/ml incubated for 3 hrs using glass as substrate by SEM analysis; format: functional, organism-based; conditions: dose 50.0 µg/ml
Pseudomonas aeruginosa [5] = test: Anti-adhesion activity against Pseudomonas aeruginosa PAO1 assessed as inhibition of adhesion ability incubated for 3 hrs using glass as substrate by colony-counting method; format: functional, organism-based; conditions: PAO1, 3 h
[6] = Inhibition of quorum sensing system in Pseudomonas aeruginosa PAO1 assessed as decrease of pyocyanin production at 10 to 200 uM for 18 hrs by microplate reader analysis; conditions: dose 10-200 µM
[7] = Inhibition of quorum sensing system in Pseudomonas aeruginosa PAO1 assessed as downregulation of lasR gene expression at 200 uM by qRT-PCR analysis
Pseudomonas aeruginosa [8] = test: Anti-adhesion activity against Pseudomonas aeruginosa PAO1 to human A549 cells assessed as decrease in cell adhesion ability at 200 uM incubated for 3 hrs by DAPI staining based confocal microscopy; format: functional
Pseudomonas aeruginosa [9] = test: Anti-adhesion activity against Pseudomonas aeruginosa PAO1 assessed as inhibition of adhesion ability at 200 uM incubated for 3 hrs using glass as substrate by colony-counting method; format: functional
Pseudomonas aeruginosa [10] = test: Antibiofilm activity against Pseudomonas aeruginosa PAO1 assessed as disruption of preformed biofilm incubated for 4 hrs by crystal violet staining based microscopic analysis; format: functional, organism-based; conditions: PAO1, 4 h
Pseudomonas aeruginosa [11] = test: Antibiofilm activity against Pseudomonas aeruginosa PAO1 assessed as inhibition of biofilm formation incubated for 24 hrs in presence of CaCl2 by crystal violet staining based microscopic analysis; format: functional, organism-based; conditions: PAO1, 24 h
[12] = Inhibition of quorum sensing system in Pseudomonas aeruginosa PAO1 assessed as decrease of pyocyanin production at 200 uM for 18 hrs by microplate reader analysis
Pseudomonas aeruginosa [13] = test: Antibiofilm activity against Pseudomonas aeruginosa PAO1 assessed as inhibition of swarming motility at 200 uM for 18 hrs by motility assay; format: functional, organism-based
[14] = Toxicity in sheep red blood cells assessed as induction of hemolysis measured after 4 hr; format: cell-based, Ovis aries, Erythrocyte
Pseudomonas aeruginosa [15] = test: Anti-adhesion activity against Pseudomonas aeruginosa PAO1 assessed as inhibition of adhesion ability at 200 uM incubated for 3 hrs using glass as substrate by SEM analysis; format: functional, organism-based
Pseudomonas aeruginosa [16] = test: Antibiofilm activity against Pseudomonas aeruginosa PAO1 assessed as disruption of preformed biofilm at 200 uM incubated for 4 hrs by crystal violet staining based microscopic analysis; format: functional
[17] = molecular target: T1, PA-I galactophilic lectin (Pseudomonas aeruginosa (strain ATCC 15692 / PAO1 / 1C / PRS 101 / LMG12228), UniProt Q05097); test: Binding affinity to Pseudomonas aeruginosa PAO1 LecA assessed as dissociation constant by ITC analysis
T1 sequence (Q05097 whole entry): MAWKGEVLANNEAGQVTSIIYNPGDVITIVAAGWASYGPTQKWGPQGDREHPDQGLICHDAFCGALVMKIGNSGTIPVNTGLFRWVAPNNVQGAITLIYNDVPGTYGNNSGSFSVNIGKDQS

[18] = Stability of the compound in rabbit plasma assessed as retention rate at 200 to 1000 uM and measured upto 24 hrs by HPLC analysis; format: ADME, cell-free, Oryctolagus cuniculus; conditions: dose 200-1000 µM, read-out: Stability
Pseudomonas aeruginosa [19] = test: Antibiofilm activity against Pseudomonas aeruginosa PAO1 assessed as disruption of preformed biofilm at 200 uM incubated for 4 hrs by Confocal microscopic analysis; format: functional, organism-based
[20] = Inhibition of quorum sensing system in Pseudomonas aeruginosa PAO1 assessed as downregulation of […] gene expression at 200 uM by qRT-PCR analysis
Pseudomonas aeruginosa [21] = test: Synergistic bactericidal activity against Pseudomonas aeruginosa PAO1 assessed as reduction in bacterial density at 200 uM incubated for 6 hrs in presence of azithromycin by colony-counting method; format: functional; design: scale not given: the % may be the effect or the level left
A549 = test: Cytotoxicity against human A549 cells assessed as reduction in cell viability at 2 mM incubated for 24 hrs by MTT assay; format: toxicity, cell-based; conditions: a549, 24 h, 2000 µM
Pseudomonas aeruginosa [22] = test: Antibiofilm activity against Pseudomonas aeruginosa PAO1 assessed as disruption of preformed biofilm at 200 uM incubated for 4 hrs by SEM analysis; format: functional, organism-based
Pseudomonas aeruginosa [23] = test: Synergistic bactericidal activity against Pseudomonas aeruginosa PAO1 assessed as reduction in bacterial density at 200 uM incubated for 1 hrs in presence of azithromycin by colony-counting method; format: functional; design: scale not given: the % may be the effect or the level left
Pseudomonas aeruginosa [24] = test: Antibiofilm activity against Pseudomonas aeruginosa PAO1 assessed as inhibition of biofilm formation at 10 to 200 uM incubated for 24 hrs in presence of CaCl2 by crystal violet staining based microscopic analysis; format: functional, organism-based; conditions: dose 10-200 µM
[25] = Inhibition of quorum sensing system in Pseudomonas aeruginosa PAO1 assessed as downregulation of rhlR gene expression at 200 uM by qRT-PCR analysis
[26] = Toxicity in sheep red blood cells assessed as induction of hemolysis at 200 uM for 4 hr; format: cell-based, Ovis aries; conditions: erythrocyte
[27] = molecular target: Elastase (Pseudomonas aeruginosa (strain ATCC 15692 / PAO1 / 1C / PRS 101 / LMG12228)) (UniProt P14756); test: Inhibition of Pseudomonas aeruginosa PAO1 elastase activity at 10 to 200 uM for 18 hrs by elastin Congo red based microplate reader analysis; conditions: dose 10-200 µM
Sequence of Elastase (Pseudomonas aeruginosa (strain ATCC 15692 / PAO1 / 1C / PRS 101 / LMG12228)) (P14756 198-498 limits assumed): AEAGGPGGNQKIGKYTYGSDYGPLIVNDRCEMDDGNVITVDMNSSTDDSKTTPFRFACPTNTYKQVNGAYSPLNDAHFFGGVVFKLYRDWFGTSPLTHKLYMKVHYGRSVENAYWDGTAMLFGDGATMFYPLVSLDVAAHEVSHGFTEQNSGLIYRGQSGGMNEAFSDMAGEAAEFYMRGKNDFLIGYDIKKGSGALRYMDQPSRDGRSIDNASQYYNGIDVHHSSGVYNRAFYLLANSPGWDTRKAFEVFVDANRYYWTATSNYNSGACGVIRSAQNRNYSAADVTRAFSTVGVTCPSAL

Pseudomonas aeruginosa [28] = test: Antibiofilm activity against Pseudomonas aeruginosa PAO1 assessed as inhibition of biofilm formation at 200 uM incubated for 24 hrs in presence of CaCl2 by crystal violet staining based microscopic analysis; format: functional

IC50 (Pseudomonas aeruginosa [5]) [µM]	inhibition [6]	EC50 (Pseudomonas aeruginosa [10]) [µM]	IC50 (Pseudomonas aeruginosa [11]) [µM]	remaining at 24 h, up to 1000 µM [18] [%]	inhibition [20]	inhibition [25]	inhibition [27]	Structure (SMILES)	Activity (Pseudomonas aeruginosa [8])	inhibition at 200 µM (Pseudomonas aeruginosa [9]) [%]	Activity (Pseudomonas aeruginosa [13])	HC50 at 4 h [14] [mM]	Activity (Pseudomonas aeruginosa [16]) [%]	Activity (Pseudomonas aeruginosa [19])	Activity (Pseudomonas aeruginosa [21]) [%]	Activity (A549) [%]	Activity (Pseudomonas aeruginosa [22])	Activity (Pseudomonas aeruginosa [23]) [%]	Activity [26]	inhibition at 200 µM (Pseudomonas aeruginosa [28]) [%]	further results
–	–	–	–	–	–	–	–	CC[C@H]1OC(=O)[C@H](C)[C@@H](O[C@H]2C[C@@](C)(OC)[C@@H](O)[C@H](C)O2)[C@H](C)[C@@H](O[C@@H]2O[C@H](C)C[C@H](N(C)C)[C@H]2O)[C@](C)(O)C[C@@H](C)CN(C)[C@H](C)[C@@H](O)[C@]1(C)O [AZITHROMYCIN]	–	–	–	–	–	–	–	–	–	–	–	–	Activity (Pseudomonas aeruginosa [1]): 27%; Activity (Pseudomonas aeruginosa [2]): 99%; inhibition at 50 µg/mL (Pseudomonas aeruginosa [3]): 48%; inhibition (Pseudomonas aeruginosa [4]): Active
800	Active	800	600	–	–	–	–	O=C1N[C@@H](Cc2c[nH]c3ccccc23)C(=O)N[C@H]1CO	Active	16	–	–	–	–	–	–	–	–	–	–	inhibition [7]: 20%; inhibition [12]: 35%
200	Active	80	100	> 70	Active	Active	Active	O=C1N[C@@H](Cc2c[nH]c3ccccc23)C(=O)N[C@H]1CO[C@@H]1O[C@H](CO)[C@H](O)[C@H](O)[C@H]1O	29%	50	Active	> 10	54	Active	7	90	Active	81	Non-Toxic	69	inhibition (Pseudomonas aeruginosa [15]): Active; Kd [17]: 91.3 µM; inhibition (Pseudomonas aeruginosa [24]): Active
500	Active	300	250	> 70	Active	Active	Active	O=C1N[C@@H](Cc2c[nH]c3ccccc23)C(=O)N[C@H]1CO[C@@H]1O[C@H](CO)[C@@H](O)[C@H](O)[C@H]1O	Active	32	Active	> 10	47	Active	5	90	Active	73	Non-Toxic	44	–
